# From US20240335404A1, “SUBSTITUTED ESTERS CONTAINING POLYOLS AND SACCHARIDES FOR TREATING HEPATOTOXICITY AND FATTY LIVER DISEASES” (SINEW PHARMA INC., priority 2015, published 2024)
# Like-named read-outs stand apart in the source and are kept apart here.
# Columns and labels:
# [1] = tested on: Liver Injuries Induced by APAP; assay: Liver injuries induced by APAP in rats (GSP, AST/ALT, HAI, survival); type: in vivo, SD (Sprague-Dawley) rats; settings: APAP 2,000 mg/kg, 140 mg/kg of NAC followed by 5 × 70 mg/kg NAC at 4 h intervals
# Description: Male SD (Sprague-Dawley) rats weighing 175-280 g were purchased from the National Laboratory Animal Center (NLAC), Taiwan. The study was conducted in accordance with the Guidelines for Conducting Animal Studies of the National Health Research Institute and all rats were placed in the air/humidity controlled environment under the 12 hours of day/12 hours of night cycle and with unlimited water and food supply. During the course of the study, the weights of rats were monitored continuously with normal water supply.
# In the normal control (Group 1), animals were not fed with APAP. In the control group of APAP-induced liver injuries (Group 2), animals were fed with a single dose of APAP in the amount of 2,000 mg per kilogram of body weight to induce hepatotoxicity. In the positive control group of treatment with NAC (Group 3), animals were fed with a single dose of APAP in the amount of 2,000 mg per kilogram of body weight to induce hepatotoxicity, and 4 hours later, a 24-hour treatment period by tube feeding was started, including first administration of 140 mg of NAC (per kilogram of body weight) and later administration of 70 mg of NAC (per kilogram of body weight) every 4 hours for five times. In the experimental group (Group 4), animals were fed with a single dose of APAP in the amount of 2,000 mg per kilogram of body weight to induce hepatotoxicity, and 4 hours later, a 24-hour treatment period by tube feeding was started, including six dosing with the ingredients of the present invention every 4 hours, as follows: • (a) (Group 4.1): administration of mannitol at a dose less than or equivalent to 100 mg per person every 4 hours for 24 hours, • (b) (Group 4.2): administration of double dose of mannitol as in Group 4.1 every 4 hours for 24 hours, • (c) (Group 4.3): administration of sucralose at a dose less than or equivalent to 100 mg per person every 4 hours for 24 hours, • (d) (Group 4.4): administration of double dose of sucralose of Group 4.3 every 4 hours for 24 hours, • (e) (Group 4.5): administration of a combination of 0.5 times the dose of mannitol as in Group 4.1 and 0.5 times the dose of sucralose as in Group 4.3 per kilogram of body weight every 4 hours for 24 hours, • (f) (Group 4.6): administration of a combination of the dose of mannitol as in Group 4.1 and the dose of sucralose as in Group 4.3 every 4 hours for 24 hours, • (g) (Group 4.7): administration of a combination of 1.5 times the dose of mannitol as in Group 4.1 and 1.5 times the dose of sucralose as in Group 4.3 every 4 hours for 24 hours, • (h) (Group 4.8): administration of a combination of double dose of mannitol as in Group 4.1 and double dose of sucralose as in Group 4.3 every 4 hours for 24 hours, and • (i) (Group 4.9): first administration of 140 mg of NAC per kilogram of body weight and later administration of a combination of 70 mg of NAC plus double dose of mannitol as in Group 4.1 and double dose of sucralose as in Group 4.3 every 4 hours for five times.
# After the 24-hour treatment period, blood was collected from the tail artery of the rats for AST/SLT assays. Subsequently, rats were subjected to GSP tests. Finally, rats were sacrificed and histological analysis was performed.
# After completion of the treatments, rats were sacrificed under ether anesthesia, and blood was collected from the tail artery of the rats and placed in a test tube containing EDTA. The plasma was centrifuged at 13,000 at 4° C. for 15 minutes and the isolated plasma was transferred to Eppendorf tubes in aliquots and stored at −80° C.
# (§1) Liver damage is quantified by measuring plasma AST and ALT activity. AST and ALT are common indicators of hepatotoxicity and are measured by using the Synchron LXi 725 system (Beckman Instruments, U.S.).
# Following scarification of the rats, histological analysis was performed.
# HepG2 fatty liver cells = assay: TG content in oleic acid-induced fatty liver cells from HepG2; type: cell-based, human; settings: tested substances 1.0 μM
# Description: The activity of the various ingredients as described herein, including mannitol and sucralose and others, in reduction of fat content was analyzed by using human hepatoma cell line Hep G2.
# HepG2 cell lines (15×10^6 cells) were cultured in DMEM culture No. B, incubated in an incubator with 5% CO2 at 37° C. for 24 hours, cultured in DMEM culture No. C (serum-free medium) for 24 hours, and finally cultured in DMEM culture No. D (containing oleate/albumin complex) for another 48 hours to induce HepG2 cell lines to form fatty liver cells.
# HepG2 cell lines were divided into six groups, including: (1) Blank: no treatment; (2) DMSO group: cells from Blank were treated with dimethyl sulfoxide (DMSO); (3) Control: induction with oleic acid to form fatty liver cells; (4) Vehicle group: fatty liver cells formed by induction with oleic acid were treated with DMSO; (5) Positive control: fatty liver cells were treated with silyrnarin; and (6) Test Group: fatty liver cells were treated with various compounds of the present invention.
# After incubation for 72 hours, the treated cells from each group were successively washed twice in PBS, and then incubated with 0.5 ml of trypsin/EDTA for 3 minutes. Afterwards, the cells were scraped with 2 ml of PBS and then transferred to the centrifuge tube to be shattered by ultrasonic. A volume of 20 μl cell extracts was taken to determine the content of protein. TG determination was performed using commercially available combination of agents (Randox). The TG content obtained above was divided by the protein content to get a ratio, which represented the relative content of TG in cells.
# The equation for calculating reduction rate (%) of TG was as follows: [1−(TG content of Test Group−TG content of Blank)/(TG content of Oleic acid induction Group−TG content of Blank)]×100%.
# CYP2E1 = CYP2E1 (Homo sapiens, UniProt P05181); settings: microsomes, 30 min, pH 7.4
# Description: After addition of the test sample, the amount of CYP450 isozyme metabolite standard 6-OH-CZX (6-Hydroxy-Chlorzoxazone) is specific used for calculation of the CYP450 isozyme (CYP2E1) inhibition ratio of the test sample by using the amount of 6-OH-CZX of the control group as the baseline.
# All samples were tested in triplicate. To determine the percentage inhibition, each test compound was dissolved in 1, 2, 4 μg/mL to three different concentrations. The CYP2E1 activity levels in the presence of the test compounds were compared with the control incubations. The 500-μL reaction mixture, containing 0.5 mg of microsomal protein, was incubated with 320 μM CZX in the presence of 5 mM MgCl2 and 1 mM NADPH in 50 mM phosphate buffer with pH 7.4 at 37° C. for 30 min. The reaction was terminated by ice-cold acetonitrile, and then 4-hydroxyl tolbutamide was added as an internal standard. The organic phase was evaporated to dryness and reconstituted into the mobile phase (methanol:water=1:1) prior to liquid chromatography-tandem mass spectrometry (LC-MS/MS) analysis. An API 3000 triple-quadrupole mass spectrometer equipped with an ion-spray (ESI) source was used to determine 6-OH-CZX in the human liver microsomes. The ESI interface was used in the positive-ion mode. The 6-OH-CZX was monitored at a transition of m/z 284.5→185.9.
# The CYP450 isozyme activity levels in the presence of the test compounds were compared with the control incubations.
# [2] = tested on: Liver Injuries Induced by CCl4; assay: Liver injuries induced by CCl4 in mice (GSP, AST/ALT, HAI); type: in vivo; settings: CCl4-induced liver injuries; dose less than or equivalent to 100 mg per person
# Description: In the normal control, animals were administered with normal saline by intraperitoneal injection. In the control group of CCl4 induced liver injuries, animals were intraperitoneally injected with 10 ml/kg CCl4 (40% in corn oil) to induce hepatotoxicity. In the experimental group, animals were intraperitoneally injected with 10 ml/kg CCl4 (40% in corn oil) to induce hepatotoxicity, and 4 hours later, different ingredients of the present invention were administered by tube feeding. Blood was collected from the mice before administration with the ingredients of the present invention or at 24 hours after administration with the ingredients of the present invention for AST/ALT assays. Finally, animals were sacrificed at day 2 and blood were collected for AST/ALT assay and histological analysis was performed.
# On the other hand, other experimental groups of mice were fed with the ingredients of the present invention for 12 weeks and the mice were subjected to GSP tests.
# as §1
# Following scarification of the rats, histological analysis was performed. Liver samples were fixed with 10% phosphate-buffered formalin, dehydrated an embedded in paraffin, Sections were prepared in 5 μm thickness and then stained with hematoxylin and eosin and subjected to Periodic acid Schiff stain (PAS). The stained sections were observed under the optic microscope.
# After the study was completed, all rats were subjected to GSP test. Rats were i.v. injected with 0.4 g/ml BW galactose solution 0.5 g/kg within 30 seconds and one blood sample was collected at 5, 10, 15, 30, 45 and 60 minutes post injection from the tail vein. Colorimetric galactose dehydrogenase is used to quantify the concentration of galactose and the test concentration ranges from 50 to 1,000 μg/ml. The within-day variation of each concentration is calculated using standard deviation and coefficient of variation (CV) and the maximum allowable coefficient of variation is 10% CV, whereas day-to-day variation is examined by comparing the slope and intercept of calibration curves. The GSP is the blood galactose concentration obtained 60 seconds after stopping the 30-second injection.
# All data are represented in mean±standard deviation (SD) and the results are calculated using ANOVA to determine the significance. Statistical Package of the Social Science program (Version 13, SPSS Inc.) is used for calculations followed by post hoc test to examine the least significant difference for multiple comparisons so as to confirm the significant differences between groups and the average difference between groups was significant p<0.05.
# Chain of CYP2E1 (P05181 whole entry): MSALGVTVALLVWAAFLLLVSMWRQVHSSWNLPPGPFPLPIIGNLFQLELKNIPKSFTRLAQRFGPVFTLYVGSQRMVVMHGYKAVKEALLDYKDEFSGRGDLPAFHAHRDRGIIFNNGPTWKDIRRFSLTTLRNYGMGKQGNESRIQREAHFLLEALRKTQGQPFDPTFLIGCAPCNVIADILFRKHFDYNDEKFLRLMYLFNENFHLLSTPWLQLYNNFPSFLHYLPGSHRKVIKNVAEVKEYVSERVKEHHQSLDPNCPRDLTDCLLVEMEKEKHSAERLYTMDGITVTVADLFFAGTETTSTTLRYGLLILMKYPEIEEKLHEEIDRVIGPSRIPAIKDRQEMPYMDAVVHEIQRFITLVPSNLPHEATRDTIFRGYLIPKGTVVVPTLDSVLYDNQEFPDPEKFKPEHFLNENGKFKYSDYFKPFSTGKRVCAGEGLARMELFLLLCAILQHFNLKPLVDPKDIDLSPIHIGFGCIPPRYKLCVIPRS
compound,measurement,setting,value
"CC(=O)N[C@@H](CS)C(=O)O [NAC, N-acetylcysteine, reference compound]",ALT,[1],221 ± 69 IU/L
same,AST,[1],428 ± 74 IU/L
same,GSP,[1],393 ± 68 mg/L
same,Total HAI score,[1],4.2 ± 0.8
same,"Survival (Day 14, n/n)",[1]; Day 14,3/6
C[C@@H]1O[C@@H](Oc2c(-c3ccc(O)c(O)c3)oc3cc(O)cc(O)c3c2=O)[C@H](O)[C@H](O)[C@H]1O [Quercitrin],TG reduction rate (%),HepG2 fatty liver cells,9.15 ± 9.24%
Oc1cc(O)c2c(c1)O[C@H](c1ccc(O)c(O)c1)[C@@H](O)C2 [(+)-Catechin],TG reduction rate (%),HepG2 fatty liver cells,29.57 ± 4.02%
COc1ccc([C@@H]2CC(=O)c3c(O)cc(O[C@@H]4O[C@H](CO[C@@H]5O[C@@H](C)[C@H](O)[C@@H](O)[C@H]5O)[C@@H](O)[C@H](O)[C@H]4O)cc3O2)cc1 [Didymin],TG reduction rate (%),HepG2 fatty liver cells,20.37 ± 12.69%
COc1ccc([C@@H]2CC(=O)c3c(O)cc(O[C@@H]4O[C@H](CO)[C@@H](O)[C@H](O)[C@H]4O[C@@H]4O[C@@H](C)[C@H](O)[C@@H](O)[C@H]4O)cc3O2)cc1O [Neohesperidin],TG reduction rate (%),HepG2 fatty liver cells,13.29 ± 7.21%
COc1ccc(-c2cc(=O)c3c(O)cc(O[C@@H]4O[C@H](CO[C@@H]5O[C@@H](C)[C@H](O)[C@@H](O)[C@H]5O)[C@@H](O)[C@H](O)[C@H]4O)cc3o2)cc1 [Linarin],TG reduction rate (%),HepG2 fatty liver cells,9.24 ± 12.34%
COc1c(O)cc(O)c2c(=O)cc(-c3ccccc3)oc12 [Wongonin],TG reduction rate (%),HepG2 fatty liver cells,20.78 ± 1.12%
"CCN(CC)C(=S)S [DDTC, Diethyldithiocarbamic acid]",CYP 2E1 inhibition ratio (%),CYP2E1; 10 μM,11.2 ± 2.4%
same,CYP 2E1 inhibition ratio (%),CYP2E1; 50 μM,51.2 ± 3.2%
Oc1cc(O)c2c(c1)O[C@H](c1cc(O)c(O)c(O)c1)[C@H](O)C2 [(−)-Epigallocatechin],TG reduction rate (%),HepG2 fatty liver cells,36.78 ± 6.67%
O=c1c(O)c(-c2ccc(O)c(O)c2)oc2c(O[C@@H]3O[C@H](CO)[C@@H](O)[C@H](O)[C@H]3O)c(O)cc(O)c12 [Gossypin],TG reduction rate (%),HepG2 fatty liver cells,20.25 ± 4.63%
COc1ccc([C@@H]2CC(=O)c3c(O)cc(O[C@@H]4O[C@H](CO[C@@H]5O[C@@H](C)[C@H](O)[C@@H](O)[C@H]5O)[C@@H](O)[C@H](O)[C@H]4O)cc3O2)cc1O [Hesperidin],TG reduction rate (%),HepG2 fatty liver cells,34.81 ± 5.25%
O=c1c(O)c(-c2ccc(O)c(O)c2)oc2cc(O)cc(O)c12 [quercetin],ALT,[2],93 ± 26 IU/L
same,AST,[2],115 ± 40 IU/L
same,GSP,[2],286 ± 70 mg/L
same,Total HAI score,[2],1.1 ± 0.7
O=C([O-])c1ccccc1.[Na+] [Sodium benzoate],TG reduction rate (%),HepG2 fatty liver cells,14.35 ± 4.86%
(−)-Epicatechin-3-gallate,TG reduction rate (%),HepG2 fatty liver cells,32.7 ± 4.33%
Oc1cc(O)c2c(c1)O[C@H](c1ccc(O)c(O)c1)[C@H](O)C2 [(−)-Epicatechin],TG reduction rate (%),HepG2 fatty liver cells,10.76 ± 8.92%
O=c1c(O)c(-c2ccc(O)cc2)oc2cc(O)cc(O)c12 [Kaempferol],ALT,[2],128 ± 40 IU/L
same,AST,[2],198 ± 105 IU/L
same,GSP,[2],456 ± 101 mg/L
O=c1cc(-c2ccc(O)c(O)c2)oc2cc(O[C@@H]3O[C@H](CO)[C@@H](O)[C@H](O)[C@H]3O)cc(O)c12 [Luteolin-7-glucoside],TG reduction rate (%),HepG2 fatty liver cells,19.33 ± 4.59%
O=C(O)c1ccc(O)c(O)c1 [Protocatechuic acid],TG reduction rate (%),HepG2 fatty liver cells,18.57 ± 7.6%
epigallocetechin-3-gallate,ALT,[2],95 ± 36 IU/L
same,AST,[2],144 ± 49 IU/L
same,GSP,[2],312 ± 140 mg/L
same,Total HAI score,[2],1.7 ± 0.9
O=S(=O)([O-])NC1CCCCC1.[Na+] [Sodium cyclamate],TG reduction rate (%),HepG2 fatty liver cells,4.77 ± 4.49%
COc1ccc(-c2cc(=O)c3c(O)cc(O)c(-c4cc(-c5cc(=O)c6c(O)cc(OC)cc6o5)ccc4OC)c3o2)cc1 [Sciadopitysin],TG reduction rate (%),HepG2 fatty liver cells,21.83 ± 5.04%
COc1ccc(O)c(C(C)(C)C)c1 [Butylated hydroxyanisole],TG reduction rate (%),HepG2 fatty liver cells,6.21 ± 3.8%
